Here are results for 20 compounds from patent US20230061736A1, “GPR119 AGONISTS” (Kallyope, Inc., priority 2019, published 2023).

Structures are written as SMILES.

The test deals with T1, human GPR119 (hGPR119) (Homo sapiens, UniProt Q8TDV5).
T1 construct: expressed in transfected cells
T1 sequence (Q8TDV5 1-335): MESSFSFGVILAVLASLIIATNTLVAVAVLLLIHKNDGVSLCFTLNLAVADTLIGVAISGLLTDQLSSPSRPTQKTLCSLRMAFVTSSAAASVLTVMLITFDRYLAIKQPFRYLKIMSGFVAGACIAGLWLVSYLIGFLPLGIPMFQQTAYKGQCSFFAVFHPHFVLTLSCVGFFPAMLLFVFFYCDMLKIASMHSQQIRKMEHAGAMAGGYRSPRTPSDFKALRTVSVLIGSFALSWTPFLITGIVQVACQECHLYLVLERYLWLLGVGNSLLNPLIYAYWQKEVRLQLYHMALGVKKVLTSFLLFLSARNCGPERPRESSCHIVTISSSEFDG
In words: cAMP accumulation assay (cAMP Gs dynamic HTRF kit). It is filed as cell-based. The note with it: CHO-K1 cells stably expressing hGPR119, 4-parameter fit; for Emax: 1 h, % activity normalized to Max/Min controls; for EC50: cAMP accumulation. The gist of the method: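 CHO-K1 cells stably expressing hGPR119, used as assay-ready frozen stocks at ~10,000 cells/well, exposed to compound dose-response in stimulation buffer with Tween 80 for 60 min at 37° C. cAMP read by HTRF (665/620 nm ratio), normalised to Max/Min controls; EC50 and Max activity from 4-parameter fit.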
(In general: cAMP levels reflect the balance of adenylyl cyclase and phosphodiesterase activity.)

For the compound `O=C(Cc1c(F)cc(OCCC2CC3(CCN(c4ncc(Cl)cn4)CC3)C2)cc1F)N1CC(CNC[C@H](O)[C@@H](O)[C@H](O)[C@H](O)CO)C1` [Example 115, 2-[4-[2-[7-(5-chloropyrimidin-2-yl)-7-azaspiro[3.5]nonan-2-yl]ethoxy]-2,6-difluoro-phenyl]-1-[3-[[[(2S,3R,4R,5R)-2,3,4,5,6-pentahydroxyhexyl]amino]methyl]azetidin-1-yl]ethanone], the Emax (in general, the greatest response seen or fitted, relative to the assay's reference) was in the range of 100 to 130% and the 50% effective concentration (EC50) – broadly, the concentration that produces a half-maximal response – lay within 100 to 1000 nM.

With `O=C(Cc1ccc(OCCCC2CCN(c3ncc(Cl)cn3)CC2)cc1F)NCCCC(=O)NC(CO)CO` [Example 21, 4-[[2-[4-[3-[1-(5-chloropyrimidin-2-yl)-4-piperidyl]propoxy]-2-fluoro-phenyl]acetyl]amino]-N-[2-hydroxy-1-(hydroxymethyl)ethyl]butanamide], the maximal response (Emax) was not below 130% and the concentration for a half-maximal effect (EC50) is 100 to 1000 nM.

`O=C(Cc1ccc(OCCCC2CCN(c3ncc(Cl)cn3)CC2)cc1F)N1CC(CCNC(CO)CO)C1` [Example 56, 2-(4-(3-(1-(5-chloropyrimidin-2-yl)piperidin-4-yl)propoxy)-2-fluorophenyl)-1-(3-(2-((1,3-dihydroxypropan-2-yl)amino)ethyl)azetidin-1-yl)ethan-1-one] showed an Emax of 100 to 130% and an EC50 not above 100 nM.

Compound `O=C(Cc1c(F)cc(OCCCC2CC3(CCN(c4ncc(Cl)cn4)CC3)C2)cc1F)N1CC(CNC[C@H](O)[C@@H](O)[C@H](O)[C@H](O)CO)C1` [Example 116, 2-[4-[3-[7-(5-chloropyrimidin-2-yl)-7-azaspiro[3.5]nonan-2-yl]propoxy]-2,6-difluoro-phenyl]-1-[3-[[[(2S,3R,4R,5R)-2,3,4,5,6-pentahydroxyhexyl]amino]methyl]azetidin-1-yl]ethanone] showed a maximum response (Emax) not below 130% and an EC50 not above 100 nM.

In turn, `COCc1cnc(N2CCC(CCCOc3cc(F)c(CC(=O)N4CC(CNC[C@H](O)[C@@H](O)[C@H](O)[C@H](O)CO)C4)c(F)c3)CC2)nc1` [Example 94, 2-(2,6-difluoro-4-(3-(1-(5-(methoxymethyl)pyrimidin-2-yl)piperidin-4-yl)propoxy)phenyl)-1-(3-((((2S,3R,4R,5R)-2,3,4,5,6-pentahydroxyhexyl)amino)methyl)azetidin-1-yl)ethan-1-one] came in with a maximum response (Emax) of 100 to 130% and a half-maximal effective concentration (EC50) of 100 to 1000 nM.

The compound `CCCc1cnc(N2CCC(CCCOc3ccc(CC(=O)N4CC(CNCC(CO)CO)C4)c(F)c3)CC2)nc1` [Example 70, 2-(2-fluoro-4-(3-(1-(5-propylpyrimidin-2-yl)piperidin-4-yl)propoxy)phenyl)-1-(3-(((3-hydroxy-2-(hydroxymethyl)propyl)amino)methyl)azetidin-1-yl)ethan-1-one] registered a maximum response (Emax) of 100 to 130% and an EC50 not above 100 nM.

As for `O=C(Cc1ccc(CC(=O)N2CC(CNC[C@H](O)[C@@H](O)[C@H](O)[C@H](O)CO)C2)c(F)c1)OCCC1CCN(c2ncc(Cl)cn2)CC1` (racemic) [Example 92, 2-[1-(5-chloropyrimidin-2-yl)-4-piperidyl]ethyl 2-[3-fluoro-4-[2-oxo-2-[3-[[[rac-(2S,3R,4R,5R)-2,3,4,5,6-pentahydroxyhexyl]amino]methyl]azetidin-1-yl]ethyl]phenyl]acetate], the Emax is 100 to 130% and the 50% effective concentration (EC50) lay in the range of 100 to 1000 nM.

Compound `O=C(Cc1c(F)cc(OCCCC2CCN(c3ncc(Cl)cn3)CC2)cc1F)NC(CO)(CO)CO` [Example 6, 2-[4-[3-[1-(5-chloropyrimidin-2-yl)-4-piperidyl]propoxy]-2,6-difluoro-phenyl]-N-[2-hydroxy-1,1-bis(hydroxymethyl)ethyl]acetamide] gave an Emax of 100 to 130% and a 50% effective concentration (EC50) of 100 to 1000 nM.

`O=C(Cc1ccc(COCC2CC3(CCN(c4ncc(Cl)cn4)CC3)C2)cc1F)N1CC(CNC[C@H](O)[C@@H](O)[C@H](O)[C@H](O)CO)C1` [Example 107] showed an Emax of 100 to 130% and a 50% effective concentration (EC50) of 1000 to 10000 nM.

With `COCc1cnc(N2CCC(CCCOc3cc(F)c(CC(=O)N4CCC(O)(CNCC(CO)(CO)CO)C4)c(F)c3)CC2)nc1` (stereo not shown) [Example 190, 2-[2,6-difluoro-4-[3-[1-[5-(methoxymethyl)pyrimidin-2-yl]-4-piperidyl]propoxy]phenyl]-1-[3-hydroxy-3-[[[3-hydroxy-2,2-bis(hydroxymethyl)propyl]amino]methyl]pyrrolidin-1-yl]ethanone], the Emax lay within 100 to 130% and the half-maximal effective concentration (EC50) was not above 100 nM.

`COCc1cnc(N2CCC([C@H]3C[C@H]3CCOc3ccc(CC(=O)N4CC(CNC[C@H](O)[C@@H](O)[C@H](O)[C@H](O)CO)C4)c(F)c3)CC2)nc1` (mixture of isomers) [Example 97, 2-[2-fluoro-4-[2-[rac-(1S,2R)-2-[1-[5-(methoxymethyl)pyrimidin-2-yl]-4-piperidyl]cyclopropyl]ethoxy]phenyl]-1-[3-[[[(2S,3R,4R,5R)-2,3,4,5,6-pentahydroxyhexyl]amino]methyl]azetidin-1-yl]ethanone] gave an Emax of 100 to 130% and a concentration for a half-maximal effect (EC50) of 100 to 1000 nM.

For `CC(C)OC(=O)N1CCC(CCCOc2ccc(CC(=O)N3CC(CNC[C@H](O)[C@@H](O)[C@H](O)[C@H](O)CO)C3)c(F)c2)CC1` [Example 112, isopropyl 4-[3-[3-fluoro-4-[2-oxo-2-[3-[[[(2S,3R,4R,5R)-2,3,4,5,6-pentahydroxyhexyl]amino]methyl]azetidin-1-yl]ethyl]phenoxy]propyl] piperidine-1-carboxylate], the maximal effect (Emax) is 100 to 130% and the 50% effective concentration (EC50) lay in the range of 100 to 1000 nM.

Regarding `O=C(Cc1c(F)cc(OCCC2CCC23CCN(c2ncc(Cl)cn2)CC3)cc1F)N1CC(CNC[C@H](O)[C@@H](O)[C@H](O)[C@H](O)CO)C1` (stereo partly drawn) [Example 139, 2-[4-[2-[7-(5-chloropyrimidin-2-yl)-7-azaspiro[3.5]nonan-3-yl]ethoxy]-2,6-difluoro-phenyl]-1-[3-[[[(2S,3R,4R,5R)-2,3,4,5,6-pentahydroxyhexyl]amino]methyl]azetidin-1-yl]ethanone], the maximal response (Emax) fell in the range of 100 to 130% and the EC50 was 100 to 1000 nM.

The compound `O=C(Cc1ccc(OCCCC2CCN(c3ncc(Cl)cn3)CC2)cc1F)NC(CO)(CO)CO` [Example 5, 2-[4-[3-[1-(5-chloropyrimidin-2-yl)-4-piperidyl]propoxy]-2-fluoro-phenyl]-N-[2-hydroxy-1,1-bis(hydroxymethyl)ethyl]acetamide] displayed a maximal effect (Emax) of 100 to 130% and an EC50 of 100 to 1000 nM.

On to `COCC1(CNCC(CO)(CO)CO)CCN(C(=O)Cc2ccc(OCCCC3CCN(c4ncc(Cl)cn4)CC3)cc2F)C1` (stereo not shown) [Example 122, 2-[4-[3-[1-(5-chloropyrimidin-2-yl)-4-piperidyl]propoxy]-2-fluoro-phenyl]-1-[3-[[[3-hydroxy-2,2-bis(hydroxymethyl)propyl]amino]methyl]-3-(methoxymethyl)pyrrolidin-1-yl]ethanone], for which the Emax fell in the range of 100 to 130% and the concentration for a half-maximal effect (EC50) is not above 100 nM.

Compound `O=C(Cc1ccc(OCCCC2CCN(C(=O)OC3(C(F)(F)F)COC3)CC2)cc1F)N1CC(CNC[C@H](O)[C@@H](O)[C@H](O)[C@H](O)CO)C1` [Example 125, [3-(trifluoromethyl)oxetan-3-yl] 4-[3-[3-fluoro-4-[2-oxo-2-[3-[[[(2S,3R,4R,5R)-2,3,4,5,6-pentahydroxyhexyl]amino]methyl]azetidin-1-yl]ethyl]phenoxy]propyl]piperidine-1-carboxylate] returned an Emax of 100 to 130% and a concentration giving a half-maximal response (EC50) of 100 to 1000 nM.

On to `O=C(Cc1ccc(OCCCC2CCN(c3ncc(Cl)cn3)CC2)cc1F)N1CC(CCNC(CO)(CO)CO)C1` [Example 59, 2-(4-(3-(1-(5-chloropyrimidin-2-yl)piperidin-4-yl)propoxy)-2-fluorophenyl)-1-(3-(2-((1,3-dihydroxy-2-(hydroxymethyl)propan-2-yl)amino)ethyl)azetidin-1-yl)ethan-1-one], for which the maximal response (Emax) lay within 100 to 130% and the EC50 is 100 to 1000 nM.

Consider `COCc1cnc(N2CCC(CCCOc3ccc(CC(=O)N4CC(C(=O)NC[C@H](O)[C@@H](O)[C@H](O)[C@H](O)CO)C4)c(F)c3)CC2)nc1` (racemic) [Example 39, 1-[2-[2-fluoro-4-[3-[1-[5-(methoxymethyl)pyrimidin-2-yl]-4-piperidyl]propoxy]phenyl]acetyl]-N-[rac-(2S,3R,4R,5R)-2,3,4,5,6-pentahydroxyhexyl]azetidine-3-carboxamide], for which the Emax fell in the range of 100 to 130% and the half-maximal effective concentration (EC50) is 100 to 1000 nM.

`CCCc1cnc(N2CCC(CCCOc3cc(F)c(CC(=O)NC(CO)(CO)CO)c(F)c3)CC2)nc1` [Example 8, 2-[2,6-difluoro-4-[3-[1-(5-propylpyrimidin-2-yl)-4-piperidyl]propoxy]phenyl]-N-[2-hydroxy-1,1-bis(hydroxymethyl)ethyl]acetamide] had a maximum response (Emax) of 100 to 130% and an EC50 not above 100 nM.

`O=C(Cc1ccc(OCCCCC2CCN(c3ncc(Cl)cn3)CC2)cc1F)N1CC(CNC[C@H](O)[C@@H](O)[C@H](O)[C@H](O)CO)C1` [Example 54, 2-[4-[4-[1-(5-chloropyrimidin-2-yl)-4-piperidyl]butoxy]-2-fluoro-phenyl]-1-[3-[[[(2S,3R,4R,5R)-2,3,4,5,6-pentahydroxyhexyl]amino]methyl]azetidin-1-yl]ethanone] gave an Emax not below 130% and an EC50 of 100 to 1000 nM.
